Columns and labels:
Format in all cases: cell-based
[1] = biological target: KDR (phospho-KDR, VEGF165-stimulated HUVEC cells) (Homo sapiens (Human), UniProt P35968); assay: KDR autophosphorylation ELISA in HUVEC cells (Example G); settings: cellular activity; KDR autophosphorylation ELISA in HUVEC cells
In short: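 HUVEC cells, serum-starved 24 h, were treated 1 h with an 8-point compound dilution (0.3% DMSO) and then stimulated with 100 ng/mL VEGF165 for 5 min. Phospho-KDR in lysates was quantified by sandwich ELISA against a phospho-KDR standard. IC50 from a 4-parameter logistic fit, normalised between stimulated DMSO and unstimulated controls.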

[2] = biological target: Mer (phospho-Mer, MERTK-transfected 293A cells) (Homo sapiens (Human), UniProt Q12866); assay: Mer autophosphorylation ELISA in transient transfected 293A cells (Example H); settings: cellular activity; Mer autophosphorylation ELISA in transient transfected 293A cells
Chain of Mer (phospho-Mer, MERTK-transfected 293A cells) (Q12866 21-999): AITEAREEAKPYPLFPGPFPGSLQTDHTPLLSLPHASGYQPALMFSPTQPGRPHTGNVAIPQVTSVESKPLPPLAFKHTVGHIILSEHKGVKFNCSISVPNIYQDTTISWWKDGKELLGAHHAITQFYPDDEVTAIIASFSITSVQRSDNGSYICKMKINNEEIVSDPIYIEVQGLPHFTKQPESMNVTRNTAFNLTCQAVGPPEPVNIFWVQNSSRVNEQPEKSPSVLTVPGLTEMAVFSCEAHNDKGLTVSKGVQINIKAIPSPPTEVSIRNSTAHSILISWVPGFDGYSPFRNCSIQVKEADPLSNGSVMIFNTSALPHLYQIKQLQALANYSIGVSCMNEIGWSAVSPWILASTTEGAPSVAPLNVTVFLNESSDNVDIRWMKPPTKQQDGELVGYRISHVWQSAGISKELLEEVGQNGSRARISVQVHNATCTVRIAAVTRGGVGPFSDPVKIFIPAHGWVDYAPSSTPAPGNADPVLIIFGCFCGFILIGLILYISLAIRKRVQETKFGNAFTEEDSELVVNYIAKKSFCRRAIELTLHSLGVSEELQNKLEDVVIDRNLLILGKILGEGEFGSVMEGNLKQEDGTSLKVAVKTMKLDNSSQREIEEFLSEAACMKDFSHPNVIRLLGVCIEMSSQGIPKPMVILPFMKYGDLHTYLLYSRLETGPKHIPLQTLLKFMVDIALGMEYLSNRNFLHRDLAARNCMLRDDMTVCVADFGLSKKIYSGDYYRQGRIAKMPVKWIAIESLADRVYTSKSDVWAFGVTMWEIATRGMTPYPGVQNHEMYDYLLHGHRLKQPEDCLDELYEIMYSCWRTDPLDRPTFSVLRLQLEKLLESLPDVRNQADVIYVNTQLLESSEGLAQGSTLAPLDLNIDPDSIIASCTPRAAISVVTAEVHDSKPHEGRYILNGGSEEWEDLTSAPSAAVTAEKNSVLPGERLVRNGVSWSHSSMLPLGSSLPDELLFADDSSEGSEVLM
In short: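 Human MERTK transiently transfected into 293A cells; compounds as 8-point dose curve in serum-free medium (0.3% DMSO final), 1 h. Lysates assayed by phospho-Mer sandwich ELISA against phospho-Mer standard; DMSO = 100%, reference inhibitor = 0% activity; IC50 from 4-parameter logistic fit.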

[3] = biological target: Met (phospho-Met, HGF-stimulated PC-3 prostate cancer cells) (Homo sapiens (Human), UniProt P08581); assay: Met autophosphorylation ELISA in PC-3 cells (Example F); settings: cellular activity; Met autophosphorylation ELISA in PC-3 cells; read-out: c-Met IC50
Chain of Met (phospho-Met, HGF-stimulated PC-3 prostate cancer cells) (P08581 25-1390): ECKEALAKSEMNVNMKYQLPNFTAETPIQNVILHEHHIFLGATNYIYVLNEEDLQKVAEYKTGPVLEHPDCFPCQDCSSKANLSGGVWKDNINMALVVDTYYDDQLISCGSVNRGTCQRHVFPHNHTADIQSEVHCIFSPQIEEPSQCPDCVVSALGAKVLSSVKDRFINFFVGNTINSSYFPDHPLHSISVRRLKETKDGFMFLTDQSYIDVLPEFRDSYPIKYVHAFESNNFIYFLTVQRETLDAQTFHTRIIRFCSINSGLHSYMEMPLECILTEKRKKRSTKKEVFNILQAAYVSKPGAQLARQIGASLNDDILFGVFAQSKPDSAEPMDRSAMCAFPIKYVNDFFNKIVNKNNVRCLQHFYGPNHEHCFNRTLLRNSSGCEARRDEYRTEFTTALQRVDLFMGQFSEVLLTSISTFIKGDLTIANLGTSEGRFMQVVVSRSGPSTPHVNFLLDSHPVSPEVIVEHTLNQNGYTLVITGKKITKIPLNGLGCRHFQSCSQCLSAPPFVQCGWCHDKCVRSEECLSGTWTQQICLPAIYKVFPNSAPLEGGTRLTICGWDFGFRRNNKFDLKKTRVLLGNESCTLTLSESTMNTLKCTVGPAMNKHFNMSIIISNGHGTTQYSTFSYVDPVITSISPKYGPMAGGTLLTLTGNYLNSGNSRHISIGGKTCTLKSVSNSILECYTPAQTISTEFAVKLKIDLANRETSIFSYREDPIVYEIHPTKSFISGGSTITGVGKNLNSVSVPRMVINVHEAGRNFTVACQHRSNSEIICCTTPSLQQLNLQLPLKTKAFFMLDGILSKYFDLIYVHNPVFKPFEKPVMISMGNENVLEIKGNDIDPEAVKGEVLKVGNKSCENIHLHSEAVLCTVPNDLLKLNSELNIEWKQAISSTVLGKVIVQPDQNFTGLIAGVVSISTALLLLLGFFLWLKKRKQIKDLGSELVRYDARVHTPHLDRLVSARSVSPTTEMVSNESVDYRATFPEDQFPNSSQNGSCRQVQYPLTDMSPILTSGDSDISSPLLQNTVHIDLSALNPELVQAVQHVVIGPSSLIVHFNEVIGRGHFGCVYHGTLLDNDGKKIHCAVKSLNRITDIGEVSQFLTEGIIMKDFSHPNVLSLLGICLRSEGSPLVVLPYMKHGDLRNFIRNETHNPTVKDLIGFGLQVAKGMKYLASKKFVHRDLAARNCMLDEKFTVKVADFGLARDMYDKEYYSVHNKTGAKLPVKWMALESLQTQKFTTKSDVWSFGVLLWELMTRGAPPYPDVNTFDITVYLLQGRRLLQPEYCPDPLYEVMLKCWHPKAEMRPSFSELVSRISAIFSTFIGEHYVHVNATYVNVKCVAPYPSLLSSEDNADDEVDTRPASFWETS
In short: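 PC-3 cells, serum-starved 3 h, were treated with compounds (8-point dose curve, 0.3% DMSO final) for 1 h, then stimulated with 100 ng/mL recombinant human HGF for 10 min. Lysate phospho-Met (panTyr) was quantified by sandwich ELISA; IC50 from 4-parameter logistic fit.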

[4] = biological target: AXL (phospho-AXL, Gas6-stimulated A-172 glioblastoma cells) (Homo sapiens (Human), UniProt P30530); assay: AXL autophosphorylation ELISA in A-172 cells (Example E); settings: cellular activity; AXL autophosphorylation ELISA in A-172 cells; read-out: Axl IC50
Chain of AXL (phospho-AXL, Gas6-stimulated A-172 glioblastoma cells) (P30530 26-894): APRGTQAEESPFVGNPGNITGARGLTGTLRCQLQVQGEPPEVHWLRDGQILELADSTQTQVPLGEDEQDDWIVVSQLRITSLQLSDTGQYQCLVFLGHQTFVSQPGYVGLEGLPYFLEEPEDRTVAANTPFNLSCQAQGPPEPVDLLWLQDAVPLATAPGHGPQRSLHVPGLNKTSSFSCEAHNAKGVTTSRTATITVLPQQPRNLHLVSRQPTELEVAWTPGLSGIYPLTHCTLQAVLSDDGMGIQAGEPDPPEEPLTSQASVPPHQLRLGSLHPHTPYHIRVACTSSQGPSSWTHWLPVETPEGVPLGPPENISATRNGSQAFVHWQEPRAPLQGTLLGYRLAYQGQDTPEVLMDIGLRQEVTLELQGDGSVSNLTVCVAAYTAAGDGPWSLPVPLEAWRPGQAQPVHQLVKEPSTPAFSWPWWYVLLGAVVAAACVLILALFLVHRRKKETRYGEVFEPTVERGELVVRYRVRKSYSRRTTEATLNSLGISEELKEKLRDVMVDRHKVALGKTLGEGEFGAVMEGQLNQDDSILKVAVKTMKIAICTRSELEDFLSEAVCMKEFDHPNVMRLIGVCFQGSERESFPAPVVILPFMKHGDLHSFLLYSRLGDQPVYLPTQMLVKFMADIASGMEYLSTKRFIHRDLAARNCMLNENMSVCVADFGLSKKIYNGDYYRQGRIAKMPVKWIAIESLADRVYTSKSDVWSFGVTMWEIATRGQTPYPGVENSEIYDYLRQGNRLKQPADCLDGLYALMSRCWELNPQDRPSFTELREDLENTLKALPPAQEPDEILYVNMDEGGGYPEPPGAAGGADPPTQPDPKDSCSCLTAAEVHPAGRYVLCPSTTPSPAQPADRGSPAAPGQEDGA
In short: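 Phospho-AXL in lysates was quantified by ELISA, normalised to DMSO (100%) and reference inhibitor (0%) controls. IC50 by 4-parameter logistic fit.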

Chain of KDR (phospho-KDR, VEGF165-stimulated HUVEC cells) (P35968 20-1356): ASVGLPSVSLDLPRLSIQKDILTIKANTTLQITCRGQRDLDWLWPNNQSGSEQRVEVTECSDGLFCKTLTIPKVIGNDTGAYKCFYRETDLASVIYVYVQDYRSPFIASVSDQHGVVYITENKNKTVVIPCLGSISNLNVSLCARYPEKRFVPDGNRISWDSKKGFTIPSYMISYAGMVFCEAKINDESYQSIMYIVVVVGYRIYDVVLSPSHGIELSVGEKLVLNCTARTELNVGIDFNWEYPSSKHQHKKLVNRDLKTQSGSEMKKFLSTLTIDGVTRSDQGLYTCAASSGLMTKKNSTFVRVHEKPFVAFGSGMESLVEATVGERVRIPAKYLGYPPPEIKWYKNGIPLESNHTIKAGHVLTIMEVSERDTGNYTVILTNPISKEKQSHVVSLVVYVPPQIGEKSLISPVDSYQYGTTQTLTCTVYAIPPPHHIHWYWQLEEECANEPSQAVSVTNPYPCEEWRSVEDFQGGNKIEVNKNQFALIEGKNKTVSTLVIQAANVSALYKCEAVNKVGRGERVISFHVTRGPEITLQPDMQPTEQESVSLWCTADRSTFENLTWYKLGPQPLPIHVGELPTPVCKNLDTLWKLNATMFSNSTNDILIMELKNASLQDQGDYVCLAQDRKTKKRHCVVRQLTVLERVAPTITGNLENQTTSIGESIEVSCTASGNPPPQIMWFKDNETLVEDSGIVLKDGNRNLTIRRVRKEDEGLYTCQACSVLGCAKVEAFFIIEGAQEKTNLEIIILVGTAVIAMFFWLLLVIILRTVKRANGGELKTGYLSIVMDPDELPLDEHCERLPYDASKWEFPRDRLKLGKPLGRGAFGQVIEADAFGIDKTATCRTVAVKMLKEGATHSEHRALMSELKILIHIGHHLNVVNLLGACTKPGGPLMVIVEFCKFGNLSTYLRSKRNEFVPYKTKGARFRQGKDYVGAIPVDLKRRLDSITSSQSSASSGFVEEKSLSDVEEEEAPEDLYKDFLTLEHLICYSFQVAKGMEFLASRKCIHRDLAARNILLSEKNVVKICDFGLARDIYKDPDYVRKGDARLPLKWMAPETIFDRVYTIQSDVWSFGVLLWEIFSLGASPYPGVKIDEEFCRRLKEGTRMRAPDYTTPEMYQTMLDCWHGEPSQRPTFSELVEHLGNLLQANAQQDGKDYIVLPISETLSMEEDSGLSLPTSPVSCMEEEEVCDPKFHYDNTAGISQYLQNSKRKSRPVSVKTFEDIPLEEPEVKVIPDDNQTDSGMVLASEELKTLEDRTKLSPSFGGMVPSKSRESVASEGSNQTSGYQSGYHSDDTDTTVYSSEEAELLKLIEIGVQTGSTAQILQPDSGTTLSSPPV

Work on `COc1cc2nccc(Oc3ccc(NC(=O)c4c(Cl)n(C)c(C)c(-c5ccc(F)cc5)c4=O)cc3F)c2nc1OC` [Compound 647, 2-chloro-N-[4-[(6,7-dimethoxy-1,5-naphthyridin-4-yl)oxy]-3-fluorophenyl]-5-(4-fluorophenyl)-1,6-dimethyl-4-oxopyridine-3-carboxamide] yielded an IC50 [1] greater than 300 nM, an IC50 [2] of less than 100 nM and an IC50 [3] of less than 100 nM. For the same compound, the IC50 [4] was less than 100 nM.
For `COc1cc(NC(=O)c2cn(C)c(C)c(-c3ccc(F)cc3)c2=O)ccc1Oc1ccnc2cc(OC)c(OC)nc12` [Compound 762, N-[4-[(6,7-dimethoxy-1,5-naphthyridin-4-yl)oxy]-3-methoxyphenyl]-5-(4-fluorophenyl)-1,6-dimethyl-4-oxopyridine-3-carboxamide], the IC50 [1] was less than 100 nM, the IC50 [2] was less than 100 nM and the IC50 [3] was less than 100 nM. For the same compound, the IC50 [4] was less than 100 nM.
`COc1cc2nccc(Oc3ccc(NC(=O)c4c(C)n(CCF)cc(-c5ccc(F)cc5)c4=O)cc3F)c2nc1OC` [Compound 666, N-[4-[(6,7-dimethoxy-1,5-naphthyridin-4-yl)oxy]-3-fluorophenyl]-1-(2-fluoroethyl)-5-(4-fluorophenyl)-2-methyl-4-oxopyridine-3-carboxamide] gave an IC50 [1] of 100 to 300 nM, an IC50 [2] of less than 100 nM and an IC50 [3] of less than 100 nM. The IC50 [4] was less than 100 nM.
With `COc1cc2nccc(Oc3ccc(NC(=O)c4cn(CCO)c(CO)c(-c5ccc(F)cc5C)c4=O)cc3F)c2nc1OC` [Compound 765, N-[4-[(6,7-dimethoxy-1,5-naphthyridin-4-yl)oxy]-3-fluorophenyl]-5-(4-fluoro-2-methylphenyl)-1-(2-hydroxyethyl)-6-(hydroxymethyl)-4-oxopyridine-3-carboxamide] the IC50 [1] was greater than 300 nM, the IC50 [2] was less than 100 nM and the IC50 [3] was less than 100 nM. For the same compound, the IC50 [4] was less than 100 nM.
`COc1cc2nccc(Oc3ccc(NC(=O)c4c(C)ncc(Br)c4O)cc3F)c2nc1OC` [Compound 490, 5-bromo-N-[4-[(6,7-dimethoxy-1,5-naphthyridin-4-yl)oxy]-3-fluorophenyl]-4-hydroxy-2-methylpyridine-3-carboxamide] gave an IC50 [1] of less than 100 nM, an IC50 [2] of less than 100 nM and an IC50 [3] of less than 100 nM. It also gave an IC50 [4] of 100 to 300 nM.
For `COc1cc2nccc(Oc3ccc(NC(=O)c4cn5c(c(-c6ccc(F)cc6)c4=O)COCC5)cc3)c2nc1OC` [Compound 660, N-[4-[(6,7-dimethoxy-1,5-naphthyridin-4-yl)oxy]phenyl]-9-(4-fluorophenyl)-8-oxo-3,4-dihydro-1H-pyrido[2,1-c][1,4]oxazine-7-carboxamide], the IC50 [1] was 100 to 300 nM, the IC50 [2] was less than 100 nM and the IC50 [3] was less than 100 nM. It also gave an IC50 [4] of less than 100 nM.
`COCCOc1cc2nccc(Oc3ccc(NC(=O)c4cc(C(C)=O)c(C)n(-c5ccc(F)cc5)c4=O)cc3)c2nc1OC` [Compound 757, 5-acetyl-1-(4-fluorophenyl)-N-[4-[[6-methoxy-7-(2-methoxyethoxy)-1,5-naphthyridin-4-yl]oxy]phenyl]-6-methyl-2-oxopyridine-3-carboxamide] showed an IC50 [1] greater than 300 nM, an IC50 [2] of less than 100 nM and an IC50 [3] of less than 100 nM. The IC50 [4] was less than 100 nM.
`COc1cc2nccc(Oc3ccc(NC(=O)c4c(C)nc(C)c(-c5ccc(F)cc5C)c4O)cc3)c2nc1OC` [Compound 681, N-[4-[(6,7-dimethoxy-1,5-naphthyridin-4-yl)oxy]phenyl]-5-(4-fluoro-2-methylphenyl)-4-hydroxy-2,6-dimethylpyridine-3-carboxamide] was tested, and the IC50 [1] was less than 100 nM, the IC50 [2] was less than 100 nM and the IC50 [3] was less than 100 nM. For the same compound, the IC50 [4] was less than 100 nM.
In the case of `COCc1nc(C)c(-c2ccc(F)cc2)c(OC)c1C(=O)Nc1ccc(Oc2ccnc3cc(OC)c(OC)nc23)c(F)c1` [Compound 663, N-[4-[(6,7-dimethoxy-1,5-naphthyridin-4-yl)oxy]-3-fluorophenyl]-5-(4-fluorophenyl)-4-methoxy-2-(methoxymethyl)-6-methylpyridine-3-carboxamide], the IC50 [1] is reported as greater than 300 nM, the IC50 [2] is reported as less than 100 nM and the IC50 [3] is reported as less than 100 nM. For the same compound, the IC50 [4] was less than 100 nM.

Reference: patent publication US12371428B2 (Exelixis, Inc., priority 2019, dated 2025)
